This passage reports AC50 results from ChEMBL document CHEMBL5291721, “A preclinical secondary pharmacology resource illuminates target-adverse drug reaction associations of marketed drugs” (Nat Commun, 2023).

Structures are written as SMILES.

Assay [1] addresses Gamma-aminobutyric acid receptor subunit alpha-1 (Rattus norvegicus, UniProt P62813).
In a further assay the target is T1, Adenosine receptor A1 (Homo sapiens, UniProt P30542).
T1 sequence (P30542 whole entry): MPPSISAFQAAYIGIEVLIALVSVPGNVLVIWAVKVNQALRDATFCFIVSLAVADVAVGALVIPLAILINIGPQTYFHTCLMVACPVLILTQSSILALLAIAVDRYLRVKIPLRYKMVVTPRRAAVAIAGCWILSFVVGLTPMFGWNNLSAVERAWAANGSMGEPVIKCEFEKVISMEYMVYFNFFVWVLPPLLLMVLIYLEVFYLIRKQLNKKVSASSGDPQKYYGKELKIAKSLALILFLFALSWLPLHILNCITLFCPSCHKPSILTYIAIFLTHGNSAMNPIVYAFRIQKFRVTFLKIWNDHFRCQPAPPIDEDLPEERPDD

In a further assay the target is T2, Progesterone receptor (Homo sapiens, UniProt P06401).
T2 sequence (P06401 whole entry): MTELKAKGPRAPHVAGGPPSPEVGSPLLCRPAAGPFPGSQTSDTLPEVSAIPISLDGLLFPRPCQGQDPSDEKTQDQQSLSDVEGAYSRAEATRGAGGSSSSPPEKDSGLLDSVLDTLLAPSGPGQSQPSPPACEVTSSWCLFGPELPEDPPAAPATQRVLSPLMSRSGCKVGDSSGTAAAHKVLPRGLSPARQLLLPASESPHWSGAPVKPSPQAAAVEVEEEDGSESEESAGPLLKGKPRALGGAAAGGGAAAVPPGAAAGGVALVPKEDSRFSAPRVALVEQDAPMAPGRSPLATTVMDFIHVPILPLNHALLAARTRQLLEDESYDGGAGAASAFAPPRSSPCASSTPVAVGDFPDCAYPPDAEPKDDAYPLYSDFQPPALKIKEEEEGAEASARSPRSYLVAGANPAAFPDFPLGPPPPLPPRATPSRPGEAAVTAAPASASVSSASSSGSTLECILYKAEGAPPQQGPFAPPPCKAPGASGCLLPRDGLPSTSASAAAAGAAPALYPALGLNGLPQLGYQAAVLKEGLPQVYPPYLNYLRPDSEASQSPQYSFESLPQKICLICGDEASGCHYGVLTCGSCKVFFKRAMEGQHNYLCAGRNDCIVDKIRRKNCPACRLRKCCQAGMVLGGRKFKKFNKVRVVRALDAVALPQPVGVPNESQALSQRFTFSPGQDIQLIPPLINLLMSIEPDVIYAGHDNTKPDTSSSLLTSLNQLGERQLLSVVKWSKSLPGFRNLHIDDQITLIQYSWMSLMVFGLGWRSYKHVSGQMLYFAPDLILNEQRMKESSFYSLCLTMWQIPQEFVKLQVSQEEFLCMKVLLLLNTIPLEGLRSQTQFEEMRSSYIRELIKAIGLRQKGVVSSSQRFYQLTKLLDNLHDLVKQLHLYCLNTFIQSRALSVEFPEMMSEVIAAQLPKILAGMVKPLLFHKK

Assay [2] concerns the target T3, Corticotropin-releasing factor receptor 2 (Homo sapiens, UniProt Q13324).
T3 sequence (Q13324 whole entry): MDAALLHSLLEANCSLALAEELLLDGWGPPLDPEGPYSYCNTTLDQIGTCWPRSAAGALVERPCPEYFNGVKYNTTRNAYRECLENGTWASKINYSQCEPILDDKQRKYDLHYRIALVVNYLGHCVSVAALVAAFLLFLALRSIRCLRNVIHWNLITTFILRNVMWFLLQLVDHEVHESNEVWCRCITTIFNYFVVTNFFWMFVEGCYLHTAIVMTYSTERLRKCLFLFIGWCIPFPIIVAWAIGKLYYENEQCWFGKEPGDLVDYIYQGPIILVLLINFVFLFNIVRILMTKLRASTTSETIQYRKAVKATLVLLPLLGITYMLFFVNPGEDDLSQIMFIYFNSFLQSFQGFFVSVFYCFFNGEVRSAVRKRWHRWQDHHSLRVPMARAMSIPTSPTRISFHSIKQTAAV

Assay [3] deals with Beta-3 adrenergic receptor (Homo sapiens, UniProt P13945).
The target of assay [4] is Neurotensin receptor type 1 (Homo sapiens, UniProt P30989).
A further assay has as its target T4, D(4) dopamine receptor (Homo sapiens, UniProt P21917).
T4 sequence (P21917 whole entry): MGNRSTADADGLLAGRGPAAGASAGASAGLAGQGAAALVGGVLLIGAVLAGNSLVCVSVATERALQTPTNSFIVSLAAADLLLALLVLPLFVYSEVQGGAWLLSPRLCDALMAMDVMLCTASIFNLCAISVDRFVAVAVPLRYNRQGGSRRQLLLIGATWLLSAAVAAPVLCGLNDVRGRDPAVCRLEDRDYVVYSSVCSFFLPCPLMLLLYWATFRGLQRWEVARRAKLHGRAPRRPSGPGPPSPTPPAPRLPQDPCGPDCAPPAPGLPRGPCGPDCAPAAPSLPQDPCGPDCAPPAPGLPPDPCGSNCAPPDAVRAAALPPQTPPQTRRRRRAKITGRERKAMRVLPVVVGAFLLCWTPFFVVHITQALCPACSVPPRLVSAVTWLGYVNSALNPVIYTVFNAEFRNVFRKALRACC

Assay [5] deals with T5, Muscarinic acetylcholine receptor M2 (Homo sapiens, UniProt P08172).
T5 sequence (P08172 whole entry): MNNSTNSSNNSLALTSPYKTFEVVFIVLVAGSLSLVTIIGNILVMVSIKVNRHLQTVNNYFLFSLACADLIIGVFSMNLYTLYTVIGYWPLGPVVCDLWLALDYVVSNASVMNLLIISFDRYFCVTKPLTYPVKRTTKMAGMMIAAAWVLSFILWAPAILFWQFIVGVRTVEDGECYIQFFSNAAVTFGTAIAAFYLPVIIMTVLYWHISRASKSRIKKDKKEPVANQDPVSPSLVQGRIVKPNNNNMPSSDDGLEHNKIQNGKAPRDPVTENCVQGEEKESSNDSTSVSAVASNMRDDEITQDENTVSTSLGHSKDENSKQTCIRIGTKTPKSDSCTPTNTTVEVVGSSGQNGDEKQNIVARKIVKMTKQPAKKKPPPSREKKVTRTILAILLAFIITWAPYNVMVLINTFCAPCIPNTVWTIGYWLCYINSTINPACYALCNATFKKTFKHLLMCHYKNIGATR
Further: assay procedure not described here.

Chain of Neurotensin receptor type 1 (P30989 whole entry): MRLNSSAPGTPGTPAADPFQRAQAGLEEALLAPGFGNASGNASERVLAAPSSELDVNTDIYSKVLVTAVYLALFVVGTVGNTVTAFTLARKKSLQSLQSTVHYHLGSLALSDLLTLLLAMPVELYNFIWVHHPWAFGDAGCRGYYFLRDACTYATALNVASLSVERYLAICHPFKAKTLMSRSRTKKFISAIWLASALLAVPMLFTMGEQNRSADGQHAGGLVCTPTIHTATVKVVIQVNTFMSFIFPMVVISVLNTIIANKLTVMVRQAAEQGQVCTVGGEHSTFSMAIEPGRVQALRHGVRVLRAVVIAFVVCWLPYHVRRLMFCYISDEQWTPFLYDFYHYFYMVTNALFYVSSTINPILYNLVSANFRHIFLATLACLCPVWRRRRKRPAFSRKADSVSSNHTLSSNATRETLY
Chain of Beta-3 adrenergic receptor (P13945 whole entry): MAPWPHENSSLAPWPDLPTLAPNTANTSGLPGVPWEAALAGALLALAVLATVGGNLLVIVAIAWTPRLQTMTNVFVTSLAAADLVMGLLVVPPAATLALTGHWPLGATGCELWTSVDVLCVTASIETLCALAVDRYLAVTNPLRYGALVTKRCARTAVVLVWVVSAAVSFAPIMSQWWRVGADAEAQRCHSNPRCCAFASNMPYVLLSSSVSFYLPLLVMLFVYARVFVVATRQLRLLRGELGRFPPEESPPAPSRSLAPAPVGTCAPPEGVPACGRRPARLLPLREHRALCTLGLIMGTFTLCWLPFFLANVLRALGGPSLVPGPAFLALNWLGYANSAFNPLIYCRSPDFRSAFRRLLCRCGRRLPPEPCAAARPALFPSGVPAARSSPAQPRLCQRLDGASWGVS
Chain of Gamma-aminobutyric acid receptor subunit alpha-1 (P62813 whole entry): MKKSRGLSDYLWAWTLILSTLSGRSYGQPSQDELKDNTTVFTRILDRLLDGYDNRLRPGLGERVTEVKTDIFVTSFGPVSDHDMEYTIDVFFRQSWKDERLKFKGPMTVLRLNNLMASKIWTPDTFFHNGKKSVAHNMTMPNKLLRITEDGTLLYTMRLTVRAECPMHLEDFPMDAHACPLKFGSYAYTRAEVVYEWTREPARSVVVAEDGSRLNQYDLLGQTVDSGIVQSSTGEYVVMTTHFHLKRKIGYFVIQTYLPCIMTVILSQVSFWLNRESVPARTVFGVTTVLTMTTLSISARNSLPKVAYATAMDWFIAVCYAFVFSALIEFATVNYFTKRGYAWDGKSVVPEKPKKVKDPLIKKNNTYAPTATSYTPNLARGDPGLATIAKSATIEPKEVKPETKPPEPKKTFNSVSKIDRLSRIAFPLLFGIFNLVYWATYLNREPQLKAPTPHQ

On to `OC[C@H]1NC[C@H](O)[C@@H](O)[C@H]1O`, for which the AC50 (in assay [1]; at Adenosine receptor A1) was above 30 µM each time.

In the case of `O=C(O)[C@@H](S)[C@@H](S)C(=O)O`, the AC50 (in assay [1]; on Adenosine receptor A1) was above 30 µM in each case.

Compound `C=CC1=C(C(=O)O)N2C(=O)[C@@H](NC(=O)/C(=N\O)c3csc(N)n3)[C@H]2SC1` displayed an AC50 on Progesterone receptor above 30 µM.

For `CC#CC(=O)N1CCC[C@H]1c1nc(-c2ccc(C(=O)Nc3ccccn3)cc2)c2c(N)nccn12` [ACALABRUTINIB], the AC50 (in assay [1]; on Adenosine receptor A1) was above 30 µM in each case.

On to `O=C(O)COC(=O)Cc1ccccc1Nc1c(Cl)cccc1Cl` [ACECLOFENAC], for which, at Progesterone receptor, the AC50 is above 30 µM.

Turning to `C=CCOc1ccc(CC(=O)O)cc1Cl` [ALCLOFENAC], the AC50 in assay [1] was above 30 µM.

Turning to `CN(C)CCC=C1c2ccccc2CCc2ccccc21` [AMITRIPTYLINE], the AC50 at Progesterone receptor is above 30 µM; in assay [2] it was above 30 µM; in assay [3] it was above 30 µM; in assay [4] it was above 30 µM; on D(4) dopamine receptor it was 0.819 µM.

With `CC(=O)Oc1ccccc1C(=O)O` [ASPIRIN], the half-maximal activity concentration (AC50) was above 30 µM at Progesterone receptor; above 30 µM in assay [2]; above 30 µM in assay [3]; above 30 µM in assay [4]; above 10 µM at D(4) dopamine receptor.

Take `C[C@H](CS)C(=O)N1CCC[C@H]1C(=O)O` [CAPTOPRIL]: the AC50 on Progesterone receptor is above 30 µM.

As to `O=C(Cc1cccs1)N[C@@H]1C(=O)N2C(C(=O)[O-])=C(C[n+]3ccccc3)CS[C@H]12` [CEPHALORIDINE], the AC50 (in assay [1]; at Adenosine receptor A1) was above 30 µM throughout.

As for `CN(C)CCCC1(c2ccc(F)cc2)OCc2cc(C#N)ccc21` (stereo unspecified) [CITALOPRAM], the concentration at half-maximal activity (AC50) in assay [1] is above 30 µM; at Progesterone receptor it was above 30 µM; in assay [2], above 30 µM; in assay [3], above 30 µM; in assay [4] it was above 30 µM; at D(4) dopamine receptor, above 10 µM. This compound displayed an AC50 on Adenosine receptor A1 above 30 µM.

Take `CCCCCCCCCCCCCCCC(=O)OC[C@H](COP(=O)([O-])OCC[N+](C)(C)C)OC(=O)CCCCCCCCCCCCCCC` [COLFOSCERIL PALMITATE]: the concentration at half-maximal activity (AC50) (in assay [1]; at Adenosine receptor A1) was above 30 µM each time.

`C[C@@H](CN1CC(=O)NC(=O)C1)N1CC(=O)NC(=O)C1` [DEXRAZOXANE]: the AC50 in assay [1] is above 30 µM.

In the case of `C[C@H](Nc1ncnc2[nH]cnc12)c1cc2cccc(Cl)c2c(=O)n1-c1ccccc1` [DUVELISIB], the half-maximal activity concentration (AC50) (in assay [1]; at Adenosine receptor A1) was above 30 µM throughout.

As to `C[C@]12CC[C@@H]3c4ccc(OC(=O)N(CCCl)CCCl)cc4CC[C@H]3[C@@H]1CC[C@@H]2OP(=O)(O)O` [ESTRAMUSTINE PHOSPHATE], the AC50 in assay [1] was above 30 µM.

`C[C@]12CCC(=O)C=C1CC[C@H]1[C@@H]3CC[C@](O)(C(=O)CO)[C@@]3(C)C[C@H](O)[C@@]12F` [FLUDROCORTISONE]: the AC50 was above 10 µM in assay [5]; above 30 µM on Progesterone receptor; above 30 µM in assay [2]; above 30 µM in assay [3]; above 30 µM in assay [4].

For the compound `O=c1[nH]cc(F)c(=O)[nH]1` [FLUOROURACIL], the concentration at half-maximal activity (AC50) (in assay [1]; at Adenosine receptor A1) was above 30 µM throughout.

For the compound `NCC1(CC(=O)O)CCCCC1` [GABAPENTIN], the concentration at half-maximal activity (AC50) in assay [5] is above 10 µM; at Progesterone receptor it was above 30 µM; in assay [2], above 30 µM; in assay [3], above 30 µM; in assay [4], above 30 µM; at D(4) dopamine receptor it was above 10 µM.

As for `N=C(N)NCC1COc2ccccc2O1` (stereo unspecified) [GUANOXAN], the half-maximal activity concentration (AC50) in assay [1] was above 30 µM.

As to `OCCOCCN1CCN(C(c2ccccc2)c2ccc(Cl)cc2)CC1` (stereo unspecified) [HYDROXYZINE], the concentration at half-maximal activity (AC50) in assay [5] was 9.04 µM; in assay [2], above 30 µM; in assay [3], above 30 µM; in assay [4], above 30 µM; at D(4) dopamine receptor it was 8.54 µM.

As to `Nc1nnc(-c2cccc(Cl)c2Cl)c(N)n1` [LAMOTRIGINE], the concentration at half-maximal activity (AC50) is above 10 µM in assay [5]; above 30 µM on Progesterone receptor; above 30 µM in assay [2]; above 30 µM in assay [3]; above 30 µM in assay [4]; above 10 µM on D(4) dopamine receptor.

The compound `O=NN(CCCl)C(=O)NC1CCCCC1` [LOMUSTINE] had an AC50 in assay [1] above 30 µM.

As for `CCCCCCO[C@@H](C)c1cccc(-c2csc(NC(=O)c3cc(Cl)c(/C=C(\C)C(=O)O)c(Cl)c3)n2)c1OC` [LUSUTROMBOPAG], the AC50 (in assay [1]; at Adenosine receptor A1) was above 30 µM in each case.

In the case of `Cc1cc(C)cc(OCC2CNC(=O)O2)c1` (stereo unspecified) [METAXALONE], the half-maximal activity concentration (AC50) in assay [1] is above 30 µM.

Take `CO[C@@]1(NC(=O)C(C(=O)O)c2ccc(O)cc2)C(=O)N2C(C(=O)O)=C(CSc3nnnn3C)CO[C@@H]21` (stereo partly specified) [MOXALACTAM]: the AC50 (in assay [1]; at Adenosine receptor A1) was above 30 µM each time.

With `C#CCN(C)Cc1ccccc1` [PARGYLINE], the half-maximal activity concentration (AC50) (in assay [1]; at Adenosine receptor A1) was above 30 µM each time.

As to `COc1cccc2c1C(=O)c1c(O)c3c(c(O)c1C2=O)C[C@@](O)(C(=O)CO)C[C@@H]3O[C@H]1C[C@H](N)[C@H](O[C@@H]2CCCCO2)[C@H](C)O1` [PIRARUBICIN], the AC50 (in assay [1]; at Adenosine receptor A1) was above 30 µM throughout.

Take `CC(C)NC[C@H](O)COc1ccc(O)cc1` [PRENALTEROL]: the half-maximal activity concentration (AC50) in assay [1] was above 30 µM.

Consider `CC(=O)SCC(Cc1ccccc1)C(=O)NCC(=O)OCc1ccccc1` (stereo unspecified) [RACECADOTRIL], for which the AC50 in assay [5] is above 10 µM; at Progesterone receptor, above 30 µM; in assay [3], above 30 µM.

For the compound `CCOc1ccccc1OCCN[C@H](C)Cc1ccc(OC)c(S(N)(=O)=O)c1` [TAMSULOSIN], the half-maximal activity concentration (AC50) at Progesterone receptor was above 30 µM.

In assay [1], `CN1CCC(N(Cc2cccs2)c2ccccc2)CC1` [THENALIDINE] registered an AC50 above 30 µM.

In assay [1], `CN(C)CCN(Cc1ccccc1)c1ccccn1` [TRIPELENNAMINE] showed an AC50 above 30 µM.

For the compound `Cc1c(C)c2c(c(C)c1O)CCC(C)(COc1ccc(CC3SC(=O)NC3=O)cc1)O2` (stereo unspecified) [TROGLITAZONE], the concentration at half-maximal activity (AC50) (at Progesterone receptor; in assay [2]; in assay [3]; in assay [4]) was above 30 µM throughout.

In general, AC50 refers to the concentration giving half of the maximal activity seen. Higher therefore signals activity only at high concentration.
